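Abbreviation: GI50, concentration required for 50% inhibition of growth. TGI: total growth inhibition.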
How the values were obtained:
Assay in all cases: NCI anticancer screen, dose series, 384-well format
[1] = test system: UACC-62 melanoma
[2] = test system: HS 578T breast
[3] = test system: MDA-MB-435 melanoma
[4] = test system: NCI-H522 lung
[5] = test system: HOP-62 NSCLC
[6] = test system: HOP-92 NSCLC
[7] = test system: SK-OV-3 ovarian
[8] = test system: ACHN renal
[9] = test system: MDA-MB-468 breast
[10] = test system: OVCAR-4 ovarian
[11] = test system: 786-0 renal
[12] = test system: COLO 205 colon
[13] = test system: RPMI-8226 leukemia
[14] = test system: T-47D breast
[15] = test system: A498 renal
[16] = test system: SF-268 CNS
[17] = test system: NCI-H322M lung
[18] = test system: EKVX NSCLC
[19] = test system: SK-MEL-5 melanoma
[20] = test system: SNB-19 CNS
[21] = test system: MDA-MB-231 breast
[22] = test system: SW-620 colon
[23] = test system: NCI/ADR-RES ovarian
[24] = test system: KM12 colon
[25] = test system: BT-549 breast
[26] = test system: HL-60(TB) leukemia
[27] = test system: NCI-H23 lung
[28] = test system: A549 NSCLC
[29] = test system: PC-3 prostate
[30] = test system: HCT-15 colon
[31] = test system: NCI-H460 NSCLC
[32] = test system: OVCAR-8 ovarian
[33] = test system: HCC-2998 colon
[34] = test system: MALME-3M melanoma
[35] = test system: SN12C renal
[36] = test system: TK-10 renal
[37] = test system: RXF 393 renal
[38] = test system: OVCAR-3 ovarian
[39] = test system: HT29 colon
[40] = test system: SK-MEL-2 melanoma
[41] = test system: SK-MEL-28 melanoma
[42] = test system: DU-145 prostate
[43] = test system: MCF7 breast
[44] = test system: U251 glioblastoma
[45] = test system: SNB-75 CNS
[46] = test system: SF-539 CNS
[47] = test system: CCRF-CEM leukemia
[48] = test system: NCI-H226 lung
[49] = test system: UACC-257 melanoma
[50] = test system: SR leukemia
[51] = test system: CAKI-1 renal
[52] = test system: IGROV1 ovarian
[53] = test system: MOLT-4 leukemia
[54] = test system: OVCAR-5 ovarian
[55] = test system: M14 melanoma
[56] = test system: SF-295 CNS
[57] = test system: UO-31 renal
[58] = test system: HCT-116 colon
[59] = test system: K-562 leukemia
[60] = test system: LOX IMVI melanoma

SMILES: O=c1c(O)c(-c2ccc(O)c(O)c2)oc2cc(O)cc(O)c12
- GI50 [1]: 16.6 µM
- TGI [1]: 33.5 µM
- GI50 [2]: 6.06 µM
- TGI [2]: 23.1 µM
- GI50 [3]: 17 µM
- TGI [3]: 54.6 µM
- GI50 [4]: 8.75 µM
- TGI [4]: 43.1 µM
- GI50 [5]: 11.1 µM
- TGI [5]: 23.1 µM
- GI50 [6]: 20.8 µM
- TGI [6]: 65.7 µM
- GI50 [7]: 19.8 µM
- TGI [7]: 51.7 µM
- GI50 [8]: 35.1 µM
- TGI [8]: 88.2 µM
- GI50 [9]: 2.54 µM
- TGI [9]: 7.46 µM
- GI50 [10]: 19.1 µM
- TGI [10]: 44.5 µM
- GI50 [11]: 36.5 µM
- TGI [11]: > 100 µM
- GI50 [12]: > 100 µM
- TGI [12]: > 100 µM
- GI50 [13]: 15.3 µM
- TGI [13]: 33.9 µM
- GI50 [14]: 19.9 µM
- TGI [14]: 36.8 µM
- GI50 [15]: 14.2 µM
- TGI [15]: 73.2 µM
- GI50 [16]: 17.3 µM
- TGI [16]: 40.2 µM
- GI50 [17]: 26.1 µM
- TGI [17]: 98.8 µM
- GI50 [18]: 24.6 µM
- TGI [18]: > 100 µM
- GI50 [19]: 16.8 µM
- TGI [19]: 53.4 µM
- GI50 [20]: 24.9 µM
- TGI [20]: 71.7 µM
- GI50 [21]: 10.9 µM
- TGI [21]: 40.3 µM
- GI50 [22]: 41.9 µM
- TGI [22]: > 100 µM
- GI50 [23]: 20 µM
- TGI [23]: 40.2 µM
- GI50 [24]: 22.9 µM
- TGI [24]: 96.5 µM
- GI50 [25]: 17 µM
- TGI [25]: 61.7 µM
- GI50 [26]: 12.4 µM
- TGI [26]: 25.3 µM
- GI50 [27]: 13.2 µM
- TGI [27]: 29.7 µM
- GI50 [28]: 28.2 µM
- TGI [28]: > 100 µM
- GI50 [29]: 25.5 µM
- TGI [29]: 74.5 µM
- GI50 [30]: 27 µM
- TGI [30]: 97.4 µM
- GI50 [31]: 14.9 µM
- TGI [31]: 31.7 µM
- GI50 [32]: 20.9 µM
- TGI [32]: 55.2 µM
- GI50 [33]: 29.4 µM
- TGI [33]: 93.2 µM
- GI50 [34]: 20 µM
- TGI [34]: 76.4 µM
- GI50 [35]: 28.8 µM
- TGI [35]: 79.8 µM
- GI50 [36]: 45.4 µM
- TGI [36]: > 100 µM
- GI50 [37]: 18 µM
- TGI [37]: 56.2 µM
- GI50 [38]: 16.2 µM
- TGI [38]: 42.3 µM
- GI50 [39]: 46.4 µM
- TGI [39]: > 100 µM
- GI50 [40]: 19.1 µM
- TGI [40]: 39.6 µM
- GI50 [41]: 33.2 µM
- TGI [41]: 93.1 µM
- GI50 [42]: 24.4 µM
- TGI [42]: 94 µM
- GI50 [43]: 18.9 µM
- TGI [43]: 33.8 µM
- GI50 [44]: 12.8 µM
- TGI [44]: 36 µM
- GI50 [45]: 14.3 µM
- TGI [45]: 30.5 µM
- GI50 [46]: 14.5 µM
- TGI [46]: 32.6 µM
- GI50 [47]: 13.7 µM
- TGI [47]: 26.7 µM
- GI50 [48]: 24.1 µM
- TGI [48]: 69 µM
- GI50 [49]: 23.4 µM
- TGI [49]: > 100 µM
- GI50 [50]: 1.94 µM
- TGI [50]: 3.53 µM
- GI50 [51]: 44.8 µM
- TGI [51]: > 100 µM
- GI50 [52]: 20.5 µM
- TGI [52]: 55.7 µM
- GI50 [53]: 13.6 µM
- TGI [53]: 26.6 µM
- GI50 [54]: 20.9 µM
- TGI [54]: 62.5 µM
- GI50 [55]: 20.5 µM
- TGI [55]: 47.1 µM
- GI50 [56]: 17.3 µM
- TGI [56]: 33.2 µM

SMILES: COc1ccc(Cl)c(Nc2nc3ccccc3nc2NS(=O)(=O)c2cccc(NC(=O)C(C)(C)N)c2)c1
- GI50 [1]: 6.72 µM
- TGI [1]: 19.6 µM
- GI50 [3]: 12.5 µM
- TGI [3]: 25.1 µM
- GI50 [4]: 9.12 µM
- TGI [4]: 21.6 µM
- GI50 [5]: 13.6 µM
- TGI [5]: 26.6 µM
- GI50 [6]: 0.977 µM
- TGI [6]: 5.87 µM
- GI50 [7]: 5.4 µM
- TGI [7]: 19.3 µM
- GI50 [8]: 10.2 µM
- TGI [8]: 23.3 µM
- GI50 [9]: 1.84 µM
- TGI [9]: 10.1 µM
- GI50 [10]: 10.2 µM
- TGI [10]: 24.4 µM
- GI50 [11]: 9.77 µM
- TGI [11]: 22.6 µM
- GI50 [57]: 2.73 µM
- TGI [57]: 13.3 µM
- GI50 [12]: 11.3 µM
- TGI [12]: 23.5 µM
- GI50 [13]: 3.2 µM
- TGI [13]: 11.4 µM
- GI50 [14]: 1.57 µM
- TGI [14]: 7.84 µM
- GI50 [15]: 6.64 µM
- TGI [15]: 19.5 µM
- GI50 [16]: 10.9 µM
- TGI [16]: 22.9 µM
- GI50 [17]: 10.2 µM
- TGI [17]: 23.4 µM
- GI50 [18]: 4.81 µM
- TGI [18]: 19.5 µM
- GI50 [19]: 12.8 µM
- TGI [19]: 25.5 µM
- GI50 [20]: 12.2 µM
- TGI [20]: 24.8 µM
- GI50 [21]: 14.3 µM
- TGI [21]: 27.5 µM
- GI50 [22]: 10.2 µM
- TGI [22]: 22.9 µM
- GI50 [23]: 11 µM
- TGI [23]: 23.2 µM
- GI50 [24]: 13.7 µM
- TGI [24]: 26.7 µM
- GI50 [25]: 3.17 µM
- TGI [25]: 14.1 µM
- GI50 [26]: 2.69 µM
- TGI [26]: 10.7 µM
- GI50 [27]: 4.73 µM
- TGI [27]: 20.1 µM
- GI50 [28]: 10.5 µM
- TGI [28]: 22.4 µM
- GI50 [29]: 4.02 µM
- TGI [29]: 16.3 µM
- GI50 [30]: 12.3 µM
- TGI [30]: 25 µM
- GI50 [31]: 5.5 µM
- TGI [31]: 18.5 µM
- GI50 [32]: 12.2 µM
- TGI [32]: 24.9 µM
- GI50 [33]: 8.3 µM
- TGI [33]: 22.6 µM
- GI50 [34]: 9.58 µM
- TGI [34]: 21.6 µM
- GI50 [35]: 8.86 µM
- TGI [35]: 21.3 µM
- GI50 [36]: 5.77 µM
- TGI [36]: 19.5 µM
- GI50 [37]: 2.38 µM
- TGI [37]: 8.35 µM
- GI50 [38]: 3.11 µM
- TGI [38]: 15.5 µM
- GI50 [39]: 10.2 µM
- TGI [39]: 21.9 µM
- GI50 [40]: 11.7 µM
- TGI [40]: 24.6 µM
- GI50 [41]: 3.91 µM
- TGI [41]: 16.7 µM
- GI50 [42]: 11.4 µM
- TGI [42]: 24.4 µM
- GI50 [43]: 2.76 µM
- TGI [43]: 14.5 µM
- GI50 [44]: 11.8 µM
- TGI [44]: 24.3 µM
- GI50 [45]: 2.43 µM
- TGI [45]: 10.1 µM
- GI50 [46]: 8.54 µM
- TGI [46]: 21.1 µM
- GI50 [47]: 12 µM
- TGI [47]: 24.4 µM
- GI50 [48]: 10.9 µM
- TGI [48]: 22.9 µM
- GI50 [49]: 11.6 µM
- TGI [49]: 24.2 µM
- GI50 [58]: 14.7 µM
- TGI [58]: 28 µM
- GI50 [50]: 8.2 µM
- TGI [50]: 21.6 µM
- GI50 [51]: 7.59 µM
- TGI [51]: 21.7 µM
- GI50 [52]: 1.38 µM
- TGI [52]: 3.79 µM
- GI50 [53]: 2.37 µM
- TGI [53]: 7.66 µM
- GI50 [54]: 9.79 µM
- TGI [54]: 22.3 µM
- GI50 [55]: 12.5 µM
- TGI [55]: 25.1 µM
- GI50 [59]: 13.6 µM
- TGI [59]: 26.6 µM
- GI50 [56]: 5.29 µM
- TGI [56]: 17.9 µM
- GI50 [60]: 12.8 µM
- TGI [60]: 25.4 µM

Reference: PubChem BioAssay (NCI)
